Laboratory results taken from US20130047297A1, “POLYNUCLEOTIDE MOLECULES FOR GENE REGULATION IN PLANTS” (priority 2010, published 2013).
{AF488} = Alexa Fluor 488 fluorescent label (Invitrogen)

Assays:
endogenous EPSPS = test: EPSPS mRNA, EPSPS protein and shikimate in detached leaves after anti-sense ssDNA petiole uptake (Example 9); set-up: species or system Amaranthus palmeri; details: for increasing glyphosate efficacy, shikimate accumulation: 50 microgram/mL glyphosate; for suppressing levels of EPSPS mRNA and protein: 48 h incubation, #1 5 microM, #6 5 microM each (20 microM total), compared with other treatments
Experimental: Petioles of detached leaves of glyphosate-resistant Palmer amaranth were placed in 200 mM sucrose solution with oligonucleotides according to the treatments listed in Table 2. Control leaves were permeated with the anti-sense control (SEQ ID NO:14), and additionally treated with or without 50 micrograms/mL glyphosate. EPSPS mRNA, EPSPS protein, and shikimate levels were measured after 48 h incubation. To assess the effects of anti-sense ssDNA oligonucleotides on EPSPS mRNA, total leaf RNA was isolated and quantitative real-time RT-PCR was performed to compare EPSPS mRNA levels. To assess the effects of anti-sense ssDNA oligonucleotides on EPSPS protein, total leaf soluble protein was isolated, separated by SDS-PAGE, and EPSPS protein levels measured by Western blot using antibodies against maize EPSPS_TIPA. Effects of anti-sense ssDNA oligonucleotides on shikimate accumulation as an indication of suppression of EPSPS were assessed in two experiments: in experiment 1, the oligonucleotide-treated leaves were incubated with 50 microgram/mL glyphosate for an additional 48 h either by petiole uptake (control leaves were permeated with the anti-sense control (SEQ ID NO:14), and additionally treated with or without 50 micrograms/mL glyphosate); in experiment 2, leaf disc assays were performed on the oligonucleotide-treated leaves, and shikimate levels measured by HPLC (controls in this case were leaves that had not been treated with oligonucleotides but incubated with 50 microgram/mL glyphosate).

[1] = tested on: detached leaves of glyphosate-resistant Palmer amaranth; test: Petiole uptake of fluorescently labelled ssDNA oligonucleotide in detached leaves (Example 9); set-up: species or system Amaranthus palmeri
Experimental: Petioles of detached leaves of glyphosate-resistant Palmer amaranth were placed in 200 mM sucrose solution with fluorescently labelled ssDNA oligonucleotides (SEQ ID NO:15). Leaf images were taken by Bio-Rad PharosFX imager equipped with a 488 nm laser from 4 h up to 48 h after uptake through petiole. Leaves incubated with 200 mM sucrose alone served as control.

[2] = tested on: phytoene desaturase (PDS) gene in lettuce (Lactuca sativa); test: Topical PDS ssDNA on lettuce, bleaching (Example 24); assay type: in vivo; details: 8 nanomoles polynucleotide per plant (mixture: 2 nanomoles each); observed at 4
Experimental: Lettuce variety LS49 “Green Tower” was used in the assays. Two fully expanded leaves of each plant were dipped into a freshly made 0.1% Silwet L-77 in double-distilled water solution for a few seconds. The leaves were allowed to dry for 15-30 minutes. Each plant was then treated by applying 20 microliters ssDNA solution to the top surface of two Silwet-treated leaves (total 40 microliters per plant). Table 9 lists the assay conditions used and the observed bleaching of plants topically treated with ssDNA polynucleotides.
The assays were repeated with 2 or 4 nanomoles ssDNA applied per plant.
The assays were repeated using each individual anti-sense ssDNAs (“HL287”, SEQ ID NO:55; “HL288”, SEQ ID NO:56; “HL289”, SEQ ID NO:57; and “HL290”, SEQ ID NO:58) with 8 nanomoles polynucleotide applied per plant; positive control plants were treated with a mixture of the four individual anti-sense ssDNAs at 2 nanomoles each (for a total of 8 nanomoles polynucleotide applied per plant) and negative control plants were treated only with buffer.

[3] = tested on: Nicotiana benthamiana phytoene desaturase; test: Single PDS ssDNA oligonucleotide treatment, systemic silencing in organs and seed set (Example 12); assay type: in vivo
Experimental: Four-week old tobacco (Nicotiana benthamiana) plants were used in all treatments. Two fully expanded leaves (one cotyledon, one true leaf) were conditioned by dipping into freshly made surfactant solution (0.1% Silwet L-77 in double-distilled water) for a few seconds and allowed to dry for 15-30 minutes. Twenty microliters of a single-stranded DNA (ssDNA) 22-mer oligonucleotide with the sequence […] (SEQ ID NO:39), corresponding to the nucleotides at positions 1099-1120 of Nicotiana benthamiana phytoene desaturase (SEQ ID NO:2) was applied as a 25 micromolar solution in 0.01% Silwet L-77 in 5 millimolar sodium phosphate buffer, pH 6.8 to the top surface of each conditioned leaf for a total of 40 microliters (1 nanomole oligonucleotide) per plant. Control plants were treated with the Silwet solution without the DNA oligonucleotide.
Flowers of both control and ssDNA-treated plants were allowed to set seed. Seeds were collected from mature fruits, weighed, and allowed to germinate. Seed weights were identical (about 11 mg per 100 seeds) and seed morphology appeared similar between the ssDNA-treated and the control plants.
In a separate assay using a similar procedure, tobacco plants were conditioned by dipping in 0.1% Silwet L-77 in double-distilled water, allowed to dry for 15-30 minutes, and treated with the PDS ssDNA 22-mer (SEQ ID NO:39) applied as a 25 micromolar solution in 0.01% Silwet L-77 in 5 millimolar sodium phosphate buffer, pH 6.8 to the top surface of each conditioned leaf for a total of 40 microliters (1 nanomole oligonucleotide) per plant. Other plants were not conditioned with a surfactant treatment, but were treated only with 1 nanomole of the PDS ssDNA 22-mer (SEQ ID NO:39) applied either by infiltration with a needleless syringe (shown in FIG. 18B) or by hand application of drops to the leaf surface (not shown in FIG. 18B), and either as a 25 micromolar solution in 0.01% Silwet L-77 in 5 millimolar sodium phosphate buffer, pH 6.8 or as a 25 micromolar solution in 5 millimolar sodium phosphate buffer, pH 6.8 (without surfactant). Negative control plants were treated with the Silwet buffer solution without the DNA oligonucleotide. Results are depicted in FIG. 18B.

[4] = tested on: endogenous PDS, EPSPS, or RuBisCO genes from Nicotiana benthamiana; test: PDS, EPSPS, RuBisCO anti-sense polynucleotides on Nicotiana benthamiana, plant height (Example 33); assay type: in vivo; details: PDS 25 nanomoles, EPSPS and RuBisCO 50 nanomoles of each per plant
Experimental: Nicotiana benthamiana plants were treated using a procedure similar to that described in Example 12. Polynucleotide solution (or mixed polynucleotides in the case of EPSPS and RuBisCO) were prepared in 0.01% (v/v) Silwet L-77 and 2% (w/v) ammonium sulfate in 5 millimolar sodium phosphate, pH 6.8. Two fully expanded leaves per plant were dipped into 0.1% Silwet L-77 solution freshly made with ddH2O for a few seconds, and allowed to dry. About 30 minutes later, 20 microliters of polynucleotide solution, was applied to each of the two pre-treated leaves. For PDS, each of 5 plants received 25 nanomoles of the PDS anti-sense polynucleotide (SEQ ID NO:34); for EPSPS, each of 5 plants received 50 nanomoles of each EPSPS anti-sense polynucleotide (SEQ ID NOS:279-284); and for RuBisCO, each of 5 plants received 50 nanomoles of each RuBisCO anti-sense polynucleotide (SEQ ID NOS:288-295). Paired control plants were treated with buffer (0.01% (v/v) Silwet L-77 and 2% (w/v) ammonium sulfate in 5 millimolar sodium phosphate, pH 6.8).

[5] = tested on: phytoene desaturase (PDS) gene in tomato (Solanum lycopersicum); test: Topical PDS dsRNA on tomato (Example 25); assay type: in vivo; details: 2.5 micromolar dsRNA, 40 microliters per plant
From the text: A 201 nucleotide dsRNA polynucleotide with an anti-sense strand capable of hybridizing to the RNA encoded by the sequence […] […] […] AG (SEQ ID NO:60) which correspond to the nucleotides at positions 1724-1923 of the mRNA transcribed from the tomato PDS gene sequence (SEQ ID NO:59) was synthesized by RT PCR using oligonucleotide primers with the sequences […] (SEQ ID NO:61, sense primer) and […] (SEQ ID NO:62, anti-sense primer). A 2.5 micromolar dsRNA solution was made with the 201 nucleotide dsRNA polynucleotide (SEQ ID NO:60) in 0.01% Silwet L-77 in 5 millimolar sodium phosphate buffer, pH 6.8.
Three-week old tomato seedlings were treated as follows. Two fully expanded leaves were dipped into a freshly made 0.1% Silwet L-77 solution in double-distilled water for a few seconds. The leaves were allowed to dry for 30 minutes to 1 hour. Each plant was then treated by applying 20 microliters dsRNA solution to the top surface of two Silwet-treated leaves (total 40 microliters per plant). Control plants were treated with buffer. The plants were kept in a growth chamber for observation. FIG. 30 depicts the systemic silencing of the target gene PDS as evidenced by bleaching of the dsRNA-treated plants 30 days after topical treatment.

## Anti-sense_PO1: SEQ ID NO:8, ssDNA anti-sense to Amaranthus palmeri EPSPS (antisense ACCCTCCACGACTGCCCTTT; listed as DNA, chemistry not fully specified; listed as Amaranthus palmeri)
Endogenous EPSPS
  increasing glyphosate efficacy, shikimate accumulation: increased accumulation of shikimate
  suppressing levels of EPSPS mRNA and protein: more efficacious

## Anti-sense_PO1_488: SEQ ID NO:15, 5′-labelled with Alexa Fluor 488 (antisense ACCCTCCACGACTGCCCTTT; DNA, 5' {AF488}, backbone not given here; listed as Amaranthus palmeri)
[1]; at 24 h and 48 h
  distribution in leaf: accumulate at the leaf edge
[1]; petiole in 200 mM sucrose, imaged 4 h up to 48 h
  vascular uptake into leaf: slightly time-dependent vascular uptake
[1]; petiole uptake
  release from vascular tissue into cells, as early as (time after treatment): 8 h

## HL288: SEQ ID NO:56, anti-sense ssDNA, lettuce PDS (antisense CCATTCAATGGTGCAGGTAAAAC; DNA, backbone not given here)
[2]
  systemic silencing (FIG. 29B): systemic silencing evidenced by bleaching

## HL289: SEQ ID NO:57, anti-sense ssDNA, lettuce PDS (antisense CATAGAATGCTCCTTCCACTG; DNA, backbone not given here)
[2]
  systemic silencing (FIG. 29B): systemic silencing evidenced by bleaching

## HL290: SEQ ID NO:58, anti-sense ssDNA, lettuce PDS (antisense CAAATAAATTTTGTACATTTGGGTAAGCTCCAA; DNA, backbone not given here)
[2]
  systemic silencing (FIG. 29B): systemic silencing evidenced by bleaching

## PDS ssDNA 22-mer: SEQ ID NO:39, GGCAGTACAATTAAAGGAGATG, positions 1099-1120 of SEQ ID NO:2 (DNA, backbone not given here; listed as Nicotiana benthamiana)
[3]; compared to control plants
  amount of seed produced per fruit: reduced amount of seed produced per fruit
[3]; leaves conditioned with 0.1% Silwet L-77, 1 nanomole per plant
  bleaching of apical leaves, stems, and flowers: all displayed bleaching
[3]; seeds from treated plants, control 95 out of 100
  germination rate: 4 out of 100
[3]; seeds from treated plants, identical to control
  seed weight: about 11 mg per 100 seeds
[3]; without conditioning by Silwet L-77, 1 nanomole by infiltration or hand application of drops
  bleaching of apical leaves, stems, and flowers: displayed bleaching of apical leaves, stems, and flowers

B1: EPSPS anti-sense polynucleotides: SEQ ID NOS:279-284, anti-sense to Nicotiana benthamiana EPSPS (nucleic acid)
antisense 1: CTGTGATCATCATATGTATCA
antisense 2: CCTTAACTCTCCAGCTAGCAA
antisense 3: CAGCCCGCAAATGTTTCATTC
antisense 4: GCCGTCAATGGCCGCATTGCT
antisense 5: TCCTTCCCTCAGAAAGGGCAG
antisense 6: TTGCCTCATGCTGCTAATCTG
modifications: listed as DNA, chemistry not given here
[4]; 12 days (PDS and EPSPS) or 10 days (RuBisCO) after treatment
  plant height (FIG. 36): severe stunting
[4]
  other phenotype: severe damage to the meristem and stem tissues

B2: #6: Anti-sense_PO1, PO2, PO3, PO4 (SEQ ID NOs: 8, 9, 10, 11) (nucleic acid, listed as Amaranthus palmeri)
antisense 1: ACCCTCCACGACTGCCCTTT
antisense 2: GTTTCCTTCACTCTCCAGC
antisense 3: GTAGCTTGAGCCATTATTGT
antisense 4: GTTGATGGTAGTAGCTTGAG
modifications: DNA, backbone not given here
Endogenous EPSPS
  increasing glyphosate efficacy, shikimate accumulation: increased accumulation of shikimate
  suppressing levels of EPSPS mRNA and protein: more efficacious

B3: 201 nucleotide dsRNA polynucleotide: dsRNA to SEQ ID NO:60, positions 1724-1923 of tomato PDS mRNA (nucleic acid)
sense: TCGCAGCGACTCAGAAATTATTGATGCAACGATGAAGGAACTAGCAACGCTTTTTCCTGATGAAATTTCAGCAGATCAAAGCAAAGCAAAAATATTGAAGTACCATGTTGTCAAAACTCCGAGGTCTGTTTATAAAACTGTGCCAGGTTGTGAACCCTGTCGGCCTTTACAAAGATCCCCAATAGAGGGGTTTTATTTAG
modifications: complementary strand
[5]
  plant growth compared to control plants: severely stunted
[5]; 30 days after topical treatment
  systemic silencing of PDS (FIG. 30): bleaching
